Laboratory results: ChEMBL document CHEMBL5725356, “Anti-fibrotic pyridinones” (2017)

Assay: ET-1 Assay: Fibroblasts (primary human lung and dermal, HFL-1, 3T3 etc) are seeded in 96-well plates at ~15000 cells/well and serum starved for 0-48 hours. After media exchange, compounds serially diluted in DMSO are added to the cells. After a brief incubation of ~30 min, stimulants (TGFb, serum, LPA etc) are added followed by further incubation for 16-48 hours. Media is then harvested and stored frozen in plate format for later endothelin-1 (ET-1) determination by ELISA. Toxicity measurements are made using the ATPlite kit (Perkin-Elmer). ET-1 is quantified using an ELISA kit (R&D Systems). The amount of ET-1 produced in the assay wells are back-calculated using the ELISA standard. The ability of a compound to inhibit ET-1 production is typically analyzed by fitting dose-response curves to a 4-parameter logistic function to obtain an EC50 value.
Details: HFL1

Structure (SMILES) | EC50
CCCCOC(=O)n1cc(-c2ccc(=O)n(-c3ccccc3)c2)cn1 | in the range around 125 µM
Cc1cn(-c2ccccc2)c(=O)c2c1CCCC2 | in the range around 125 µM
Cn1cc(-c2cn(-c3ccc(OC(F)(F)F)cc3)c(=O)c3c2OCC(=O)N3Cc2ccccc2)cn1 | > 200 µM
CCOc1ccc(-n2cc(-c3ccc(F)cc3)c3nccnc3c2=O)c(C)c1 | > 200 µM
O=c1cc(OCCN2CCCC2)c(-c2ccc(F)cc2)cn1-c1ccc(OC(F)(F)F)cc1 | < 50 µM
O=c1ccc(C2CCCC2)cn1-c1ccccc1 | in the range around 125 µM
CC(=O)c1ccc(=O)n(-c2ccccc2Cl)c1 | in the range around 125 µM
O=C1COc2c(-c3ccc(F)cc3)cn(-c3ccc(OC(F)(F)F)cc3)c(=O)c2N1 | > 200 µM
COCCOc1ccc(-n2cc(-c3ccc(F)cc3)c(C)cc2=O)cc1 | in the range around 125 µM
CN1CCC(Oc2cc(=O)n(-c3ccc(OC(F)(F)F)cc3)cc2-c2ccc(F)cc2)CC1 | < 50 µM
Cc1ccc(=O)n(CCc2ccccc2)c1 | in the range around 125 µM
O=c1c2c(c(-c3cccc(F)c3)cn1-c1ccc(OC(F)(F)F)cc1)CCCC2 | < 50 µM
CCn1ccc2c(-c3cnn(C)c3)cn(-c3ccc(OC(F)(F)F)cc3)c(=O)c21 | < 50 µM
O=C1COc2c(-c3ccc(F)cc3)cn(-c3ccc(OC(F)(F)F)cc3)c(=O)c2N1Cc1ccccc1 | > 200 µM
O=c1cc(O)c(-c2ccc(F)cc2)cn1-c1ccc(OC(F)(F)F)cc1 | in the range around 125 µM
CC(=O)Nc1cccc(-n2cc(C(C)=O)ccc2=O)c1 | > 200 µM
COc1cc(=O)n(-c2ccc(OC(F)(F)F)cc2)cc1-c1ccc(F)cc1 | > 200 µM
O=c1cc(OCCN2CCS(=O)(=O)CC2)c(-c2ccc(F)cc2)cn1-c1ccc(OC(F)(F)F)cc1 | > 200 µM
O=C(c1ccccc1)n1cc(-c2ccc(=O)n(-c3ccccc3)c2)cn1 | > 200 µM
Cn1cc(-c2cn(-c3ccc(OC(F)(F)F)cc3)c(=O)c3nc[nH]c23)cn1 | > 200 µM
COCCOc1ccc(-n2cc(-c3ccccc3)c(C)cc2=O)cc1 | < 50 µM
O=c1c2nsnc2c(-c2ccc(F)cc2)cn1-c1ccc(OC(F)(F)F)cc1 | > 200 µM
O=c1cc(NCc2ccccc2)c(-c2ccc(F)cc2)cn1-c1ccc(OC(F)(F)F)cc1 | > 200 µM
CC(=O)c1ccc(=O)n(-c2ccc(F)cc2)c1 | > 200 µM
O=c1ccc(C2CCCCC2)cn1-c1ccccc1 | in the range around 125 µM
Cn1cc(-c2cn(-c3ccc(OC(F)(F)F)cc3)c(=O)c3ccc(C(F)(F)F)nc23)cn1 | < 50 µM

Structure (SMILES) | EC50
COCCOc1cc(=O)n(-c2ccc(OC(F)(F)F)cc2)cc1-c1ccc(F)cc1 | > 200 µM
CS(=O)(=O)n1cc(-c2ccc(=O)n(-c3ccccc3)c2)cn1 | > 200 µM
CCOc1ccc(-n2cc(-c3cnn(C)c3)c3nccnc3c2=O)c(C)c1 | < 50 µM
CCOc1ccc(-n2cc(-c3cnn(C)c3)c3c(c2=O)CCCC3)c(C)c1 | < 50 µM
Cn1cc(-c2cn(-c3ccc(OC(F)(F)F)cc3)c(=O)c3c2CCCC3)cn1 | < 50 µM
O=c1ccc(C2CCC2)cn1-c1ccccc1 | > 200 µM
CCOc1ccc(-n2cc(Br)c3nccnc3c2=O)c(C)c1 | < 50 µM
Cn1cnc2c(-c3ccc(F)cc3)cn(-c3ccc(OC(F)(F)F)cc3)c(=O)c21 | < 50 µM
O=C1Cc2ccccc2N1c1ccc(OC(F)(F)F)cc1 | in the range around 125 µM
O=c1ccc2c(n1-c1ccccc1)CCC2 | > 200 µM
CC(=O)c1ccc(=O)n(-c2cccc(C(F)(F)F)c2)c1 | > 200 µM
Cc1cn(C)c2c(=O)n(-c3ccc(OC(F)(F)F)cc3)cc(-c3ccc(F)cc3)c12 | < 50 µM
CC(=O)c1ccc(=O)n(-c2ccc(OC(C)C)cc2)c1 | > 200 µM
COCCOc1ccc(-n2cc(-c3cn[nH]c3)c(C)cc2=O)cc1 | > 200 µM
Nc1cc(=O)n(-c2ccc(OC(F)(F)F)cc2)cc1-c1ccc(F)cc1 | in the range around 125 µM
CCOc1ccc(-n2cc(C(C)=O)ccc2=O)c(C)c1 | > 200 µM
COCCOCCOCCOc1ccc(-n2cc(C)ccc2=O)cc1 | > 200 µM
O=c1c2c(c(-c3cn[nH]c3)cn1-c1ccc(OC(F)(F)F)cc1)CCCC2 | in the range around 125 µM
Cn1cc(-c2cn(-c3ccc(OC(F)(F)F)cc3)c(=O)c3c2NCCC3)cn1 | > 200 µM
O=c1cc(Cl)c(-c2ccc(F)cc2)cn1-c1ccc(OC(F)(F)F)cc1 | < 50 µM
Cc1ccc(=O)n(Cc2ccccc2)c1 | > 200 µM
O=c1c2c(c(-c3ccc(F)cc3)cn1-c1ccc(OC(F)(F)F)cc1)NCCC2 | > 200 µM
CCOC(=O)n1cc(-c2ccc(=O)n(-c3ccccc3)c2)cn1 | < 50 µM
COc1cccc(-n2cc(C(C)=O)ccc2=O)c1 | > 200 µM
O=c1c2ncn(Cc3ccccc3)c2c(-c2ccc(F)cc2)cn1-c1ccc(OC(F)(F)F)cc1 | > 200 µM
O=c1ccc2c(n1-c1ccc(OC(F)(F)F)cc1)CCC2 | in the range around 125 µM

Structure (SMILES) | EC50
CC(=O)c1ccc(=O)n(-c2cccc(F)c2)c1 | > 200 µM
O=c1c2nccnc2c(-c2ccc(F)cc2)cn1-c1ccc(OC(F)(F)F)cc1 | < 50 µM
O=c1cc(OCCN2CCOCC2)c(-c2ccc(F)cc2)cn1-c1ccc(OC(F)(F)F)cc1 | in the range around 125 µM
Cn1cc(-c2cn(-c3ccc(OC(F)(F)F)cc3)c(=O)c3ncn(Cc4ccccc4)c23)cn1 | > 200 µM
Cn1cc(-c2cn(-c3ccccc3)c(=O)c3c2CCCC3)cn1 | < 50 µM
Cc1ccc2c(c1)CC(=O)N2c1ccc(OC(F)(F)F)cc1 | > 200 µM
O=c1cc(OCc2ccccc2)c(-c2ccc(F)cc2)cn1-c1ccc(OC(F)(F)F)cc1 | > 200 µM
O=c1c2ccc(C(F)(F)F)nc2c(-c2ccc(F)cc2)cn1-c1ccc(OC(F)(F)F)cc1 | > 200 µM
C[C@H]1CCC(=O)N(c2ccccc2)C1 | > 200 µM
COCCOc1ccc(-n2cc(-c3cnn(C)c3)c(C)cc2=O)cc1 | > 200 µM
CC(=O)n1cc(-c2ccc(=O)n(-c3ccccc3)c2)cn1 | > 200 µM
CN1C(=O)COc2c(-c3ccc(F)cc3)cn(-c3ccc(OC(F)(F)F)cc3)c(=O)c21 | > 200 µM
Cn1cc(-c2cn(-c3ccc(OC(F)(F)F)cc3)c(=O)c3cccnc23)cn1 | < 50 µM
CC(=O)c1ccc(=O)n(-c2ccc(Cl)cc2)c1 | > 200 µM
O=c1ccc(-c2ccc(F)cc2)cn1Cc1ccccc1 | < 50 µM
C[C@@H]1CCC(=O)N(c2ccccc2)C1 | > 200 µM
CNc1cc(=O)n(-c2ccc(OC(F)(F)F)cc2)cc1-c1ccc(F)cc1 | > 200 µM
O=c1c2cccnc2c(-c2ccc(F)cc2)cn1-c1ccc(OC(F)(F)F)cc1 | > 200 µM
CCOc1ccc(-n2cc(-c3cn[nH]c3)c3c(c2=O)CCCC3)c(C)c1 | < 50 µM
Cn1cc(-c2cn(-c3ccc(OC(F)(F)F)cc3)c(=O)c3nccnc23)cn1 | < 50 µM
CC(C)NC(=O)n1cc(-c2ccc(=O)n(-c3ccccc3)c2)cn1 | in the range around 125 µM
O=c1c2c(c(-c3ccc(F)cc3)cn1-c1ccc(OC(F)(F)F)cc1)CCCC2 | > 200 µM
COCCOCCOCCOc1cccc(-n2cc(C)ccc2=O)c1 | > 200 µM
O=c1ccc(-c2ccc(F)cc2)cn1CCc1ccccc1 | in the range around 125 µM
O=c1c2nc[nH]c2c(-c2ccc(F)cc2)cn1-c1ccc(OC(F)(F)F)cc1 | > 200 µM
